Results from patent US10806735B2, “Use of neutrophil elastase inhibitors in liver disease” (pH Pharma Co., Ltd., priority 2018, dated 2020).
Like-named read-outs stand apart in the source and are kept apart here.

Key:
[1] = test system: DIO mice; experiment: Example 3: fasted serum insulin in DIO mice; type: in vivo; conditions: for fasted serum insulin on day 28: vehicle 7.7±1.6; for fasted serum insulin at baseline: baseline before treatment
Method: (§1) All data are represented as group mean±SEM. Data were analyzed using Prism 7.0 (Graphpad software). All normalizations were calculated using terminal body weight. All assigned animals completed the study. […] Treatment effects compared to vehicle were determined using Oneway ANOVA (*, p<0.05; *, P<0.01) followed by Dunnett's test where appropriate.

[2] = test system: DIO mice; experiment: Example 2: terminal liver and epididymal fat weights in DIO mice; type: in vivo; conditions: 6 weeks; for epididymal fat weight (% body weight): vehicle 3.4±0.3; for liver weight (% body weight): vehicle 5.6±0.2
Method: Animals were terminated using CO2 inhalation and induction of pneumothorax. Four mice from each treatment group were sacrificed at 0.5 hr post dose and four were sacrificed at 4 hours post dose. […] Organ weights (liver, epididymal fat) were recorded. All data are represented as group mean±SEM. Data were analyzed using JMP (SAS software). All normalizations were calculated using terminal body weight. All assigned animals completed the study. […] Treatment effects compared to vehicle were determined using Oneway ANOVA (*, p<0.05) followed by Dunnett's test where appropriate.

[3] = non-CF BE patients, 28 days, cited from earlier work
[4] = test system: DIO mice; experiment: Example 3: blood glucose in DIO mice; type: in vivo; conditions: for blood glucose at day 28: vehicle 143.0±7.1; for fasted blood glucose at study start: baseline before treatment
Method: Body weight was recorded prior to glucose measurement at baseline and weekly thereafter. […] All data are represented as group mean±SEM. Data were analyzed using Prism 7.0 (Graphpad software). All normalizations were calculated using terminal body weight. All assigned animals completed the study. […] Treatment effects compared to vehicle were determined using Oneway ANOVA (*, p<0.05; *, P<0.01) followed by Dunnett's test where appropriate.

[5] = Example 4: Phase 1 single-ascending dose study in healthy subjects, safety; conditions: single doses 1 to 40 mg
Text: Following Screening, subjects received single doses of study drug and were monitored during an in-clinic period and an out-patient follow-up period. Subjects were confined to the study site for Study Days −2 through 7 to collect PK and safety assessments. Following discharge from the study site on Study Day 7, subjects returned to the study site on Study Days 14, 21, 28, and 35.

[6] = Example 3: body weight of DIO mice, 4 weeks BID oral dosing; type: in vivo; conditions: for body weight growth rate / body weight at the end of the study: 4 weeks; for body weight growth rate: vehicle 9.2±2.0%; for body weight at the end of the study: vehicle 48.8±0.9; for body weight at baseline: baseline before treatment
Method: Body weight was recorded prior to glucose measurement at baseline and weekly thereafter. All data are represented as group mean±SEM. Data were analyzed using Prism 7.0 (Graphpad software). All normalizations were calculated using terminal body weight. All assigned animals completed the study. […] Treatment effects compared to vehicle were determined using Oneway ANOVA (*, p<0.05; *, P<0.01) followed by Dunnett's test where appropriate.

[7] = test system: DIO mice; experiment: Example 3: oral glucose tolerance test (OGTT) in DIO mice; type: in vivo; conditions: for OGTT glucose AUC on day 28: vehicle 25.5±1.4; for OGTT glucose AUC at baseline: day −1 before treatment
Method: as §1

[8] = test system: DIO mice; experiment: Example 2: blood glucose (fasted and fed) in DIO mice; type: in vivo; conditions: for fed glucose on day 35: vehicle 134.5±6.9; for fasted blood glucose at study start: baseline before treatment
Method: (§2) Male DIO (diet-induced obesity) mice (C57BLJ6NTac DIO MPF, n=35) were purchased from Taconic Biosciences (Rensselaer, N.Y.). DIO mice were prepared by feeding male C57BL16 mice a high fat diet (HFD, D12492; Research Diets, Inc., New Brunswick, N.J.) from 6-16 weeks of age. A twelve-hour light cycle was maintained throughout study duration. Room temperature was monitored daily and maintained at 22-25° C. DIO mice were housed individually and maintained on the HFD during a 7-day facility acclimation period and throughout the study period. All mice were administered vehicle (5% DMSO/3% ethanol/92% peanut oil) once daily during the acclimation period.
(§3) Compounds were administered once daily in the morning by oral gavage for 6 weeks. Dose volume was maintained at 5 ml/kg throughout the study.
(§4) Whole blood was obtained weekly from fed animals by tail clip for measurement of non-fasted blood glucose (StatStrip; Nova Biomedical, Waltham, Mass.) on day 7, day 14, day 21 and day 35 after first dosing. Body weight was recorded prior to glucose measurement at baseline and weekly thereafter. Oral glucose tolerance tests were performed in fasted mice at baseline (day −1), day 28 and day 42 thereafter. […] At the end of the 6-hour fasting period, mice were challenged with glucose (2 g/kg, 10 ml/kg, by oral gavage). Blood samples were obtained by tail clip at 0, 20, 40, 60, 90 and 120 minutes post-glucose load for assessment of blood glucose by StatStrip. Serum insulin was measured from time 0 blood samples of OGTT using the Mouse/Rat Insulin Kit (MSD #K152BZC; Meso Scale Diagnostics, Rockville, Md.).
(§5) All data are represented as group mean±SEM. Data were analyzed using JMP (SAS software). All normalizations were calculated using terminal body weight. […] Treatment effects compared to vehicle were determined using Oneway ANOVA (*, p<0.05) followed by Dunnett's test where appropriate.

[9] = test system: DIO mice; experiment: Example 2: fasted serum insulin in DIO mice; type: in vivo; conditions: for fasted serum insulin on day 42: vehicle 8.2±1.5; for fasted serum insulin at baseline: baseline before treatment
Method: as §2, §3, §4, §5

[10] = Example 2: body weight of DIO mice, 6 weeks once daily oral dosing; type: in vivo; conditions: for terminal body weight: after 6 weeks, mean±SEM; for body weight at baseline: baseline before treatment
Method: as §2, §3, §4, §5

[11] = Solubility and hygroscopicity of the drug substance; type: physicochemical
[12] = Example 4: Phase 1 single-ascending dose study in healthy subjects, pharmacokinetics; type: in vivo, human; conditions: single doses 1 to 40 mg
[13] = healthy subjects, cited from earlier work
[14] = test system: DIO mice; experiment: Example 2: oral glucose tolerance test (OGTT) in DIO mice; type: in vivo; conditions: for decrease of glucose AUC on day 42 compared to baseline: vehicle 12.6±10.3%; for OGTT glucose AUC on day 42: vehicle 27.8±1.2; for OGTT glucose AUC on day 28: vehicle 27.9±1.1; for OGTT glucose AUC at baseline: day −1 before treatment
Method: as §2, §3, §4, §5

[15] = test system: HFD-fed mice; conditions: cited from earlier work

SMILES: CC1=C(C#N)[C@@H](c2ccc(C#N)cc2S(C)(=O)=O)N(C)C(=O)N1c1cccc(C(F)(F)F)c1 [Compound 1, (4S)-4-[4-cyano-2-(methylsulfonyl)phenyl]-3,6-dimethyl-2-oxo-1-[3-(trifluoromethyl)phenyl]-1,2,3,4-tetrahydropyrimidine-5-carbonitrile]
- fasted serum insulin on day 28 ([1]; 15 mg/kg BID PO): 5.8 ± 1.4 ng/mL
- fasted serum insulin on day 28 ([1]; 30 mg/kg BID PO): 4.0 ± 0.3 ng/mL
- fasted serum insulin at baseline ([1]; group assigned to 15 mg/kg BID): 7.0 ± 1.1 ng/mL
- fasted serum insulin at baseline ([1]; group assigned to 30 mg/kg BID): 4.9 ± 0.6 ng/mL
- epididymal fat weight (% body weight) ([2]; 3 mg/kg/day PO): 3.1±0.3%
- liver weight (% body weight) ([2]; 3 mg/kg/day PO): 6.8±0.3%
- epididymal fat weight (% body weight) ([2]; 15 mg/kg/day PO): 3.5±0.2%
- liver weight (% body weight) ([2]; 15 mg/kg/day PO): 6.4±0.2%
- safety and tolerability ([3]; 1.0 mg oral IR tablet): generally safe and well tolerated
- SAEs attributed to the drug ([3]; 1.0 mg oral): no SAEs were attributed by the investigator to the drug
- study drug-induced laboratory parameter or ECG effects ([3]; 1.0 mg oral): No safety signals
- blood glucose at day 28 ([4]; 15 mg/kg BID PO): 151.9 ± 6.1 mg/dL
- blood glucose at day 28 ([4]; 30 mg/kg BID PO): 137.3 ± 4.1 mg/dL
- fasted blood glucose at study start ([4]; group assigned to 15 mg/kg BID): 185.1 ± 8.3 mg/dL
- fasted blood glucose at study start ([4]; group assigned to 30 mg/kg BID): 180.1 ± 7.0 mg/dL
- AE rate compared with placebo subjects [5]: somewhat lower than that in the control (placebo) subjects
- effects on laboratory safety evaluations (clinical chemistry and hematology) [5]: no clear effects
- serious AEs, discontinuations, deaths [5]: no serious AEs and no discontinuations or deaths
- occurrence of headache ([5]; 36 subjects on drug): only observed in one Compound 1 subject
- body weight growth rate ([6]; 15 mg/kg BID PO): 5.9±1.6%
- body weight at the end of the study ([6]; 15 mg/kg BID PO): 47.5 ± 1.3 g
- body weight growth rate ([6]; 30 mg/kg BID PO): 2.8±2.3%
- body weight at the end of the study ([6]; 30 mg/kg BID PO): 46.0 ± 1.2 g
- body weight at baseline ([6]; group assigned to 15 mg/kg BID): 44.8 ± 0.7 g
- body weight at baseline ([6]; group assigned to 30 mg/kg BID): 44.8 ± 0.7 g
- OGTT glucose AUC on day 28 ([7]; 15 mg/kg BID PO): 24.7±1.9 mg/dL·min×10^3
- OGTT glucose AUC on day 28 ([7]; 30 mg/kg BID PO): 22.4±1.0 mg/dL·min×10^3
- OGTT glucose AUC at baseline ([7]; group assigned to 15 mg/kg BID): 33.8±0.9 mg/dL-min×10^3
- OGTT glucose AUC at baseline ([7]; group assigned to 30 mg/kg BID): 32.8±1.8 mg/dL-min×10^3
- fed glucose on day 35 ([8]; 3 mg/kg/day PO): 128.3 ± 3.4 mg/dL
- decrease of fasting glucose from baseline ([8]; 15 mg/kg/day PO, 6 weeks): 11%
- fed glucose on day 35 ([8]; 15 mg/kg/day PO): 134.9 ± 4.7 mg/dL
- fasted blood glucose at study start ([8]; group assigned to 3 mg/kg/day): 160.3 ± 5.7 mg/dL
- fasted blood glucose at study start ([8]; group assigned to 15 mg/kg/day): 164.6 ± 7.3 mg/dL
- fasted serum insulin on day 42 ([9]; 3 mg/kg/day PO (low dose)): 11.8 ± 1.3 ng/mL
- fasted serum insulin on day 42 ([9]; 15 mg/kg/day PO (higher dose)): 5.9 ± 1.5 ng/mL
- fasted serum insulin at baseline ([9]; group assigned to 3 mg/kg/day): 3.5 ± 0.5 ng/mL
- fasted serum insulin at baseline ([9]; group assigned to 15 mg/kg/day): 5.4 ± 1.0 ng/mL
- terminal body weight ([10]; 3 mg/kg/day PO): 49.8 ± 0.9 g
- growth rate of body weight ([10]; 15 mg/kg/day PO, 6 weeks, vehicle 14±1.8%): 6.9±1.8%
- terminal body weight ([10]; 15 mg/kg/day PO): 47.3 ± 1.1 g
- body weight at baseline ([10]; group assigned to 3 mg/kg/day): 42.8 ± 1.1 g
- body weight at baseline ([10]; group assigned to 15 mg/kg/day): 42.8 ± 1.0 g
- solubility in acetone ([11]; acetone): soluble
- solubility in ethanol ([11]; ethanol): very slightly soluble
- hygroscopicity ([11]; normal storage conditions): not hygroscopic
- solubility in water ([11]; water): practically insoluble
- exposure (AUC and Cmax) versus dose [12]: proportional increases in exposure (AUC and Cmax) with dose
- safety and tolerability ([13]; single and repeated doses up to 1 mg for up to 14 days): safe and well tolerated
- serious adverse events (SAEs) ([13]; three Phase 1 studies): no serious AEs (SAEs) were reported
- study drug-induced laboratory or ECG abnormalities ([13]; three Phase 1 studies): No safety signals
- decrease of glucose AUC on day 42 compared to baseline ([14]; 3 mg/kg PO): 20.0±4.5%
- OGTT glucose AUC on day 42 ([14]; 3 mg/kg/day PO): 28.6±0.7 mg/dL/min×10^3
- OGTT glucose AUC on day 28 ([14]; 3 mg/kg/day PO): 24.0±0.9 mg/dL·min×10^3
- decrease of glucose AUC on day 42 compared to baseline ([14]; 15 mg/kg PO): −21.9±5.0%
- OGTT glucose AUC on day 42 ([14]; 15 mg/kg/day PO): 26.3±1.1 mg/dL/min×10^3
- OGTT glucose AUC on day 28 ([14]; 15 mg/kg/day PO): 22.7±0.7 mg/dL·min×10^3
- OGTT glucose AUC at baseline ([14]; group assigned to 3 mg/kg/day): 36.3±2.0 mg/dL·min×10^3
- OGTT glucose AUC at baseline ([14]; group assigned to 15 mg/kg/day): 34.4±2.2 mg/dL·min×10^3

SMILES: CC(C)[C@@H]1C(=O)N(S(C)(=O)=O)[C@@H]2CCN(C(=O)/C=C/CN3CCCCC3)[C@H]21.Cl [GW311616A]
- glucose tolerance ([15]; HFD mice (Talukdar 2012)): improved glucose tolerance
- insulin sensitivity in glucose clamp/tracer studies ([15]; HFD mice (Talukdar 2012)): increased peripheral and hepatic insulin sensitivity
- insulin resistance and body weight gain ([15]; HFD-fed mice (Mansuy-Aubert 2013)): reversed insulin resistance and body weight gain

SMILES: CN(CCOc1ccc(CC2SC(=O)NC2=O)cc1)c1ccccn1 (stereo not drawn) [rosiglitazone, reference compound]
- epididymal fat weight (% body weight) ([2]; 30 mg/kg/day PO): 3.7±0.2%
- liver weight (% body weight) ([2]; 30 mg/kg/day PO): 5.0±0.2%
- decrease of fasting glucose compared to baseline ([8]; 30 mg/kg/day PO, 6 weeks): 23%
- fasting glucose after 6 weeks of treatment ([8]; 30 mg/kg/day PO, 6 weeks): 125.8 ± 4.8 mg/dL
- fed glucose on day 35 ([8]; 30 mg/kg/day PO): 125.5 ± 4.5 mg/dL
- fasted blood glucose at study start ([8]; group assigned to 30 mg/kg/day): 164.0 ± 4.0 mg/dL
- fasted serum insulin on day 42 ([9]; 30 mg/kg/day PO): 1.3 ± 0.1 ng/mL
- fasted serum insulin at baseline ([9]; group assigned to 30 mg/kg/day): 5.2 ± 1.1 ng/mL
- terminal body weight ([10]; 30 mg/kg/day PO): 55.0 ± 1.4 g
- body weight at baseline ([10]; group assigned to 30 mg/kg/day): 42.8 ± 1.0 g
